Where two headings read alike, the source gives them in different places.

Data set [1] concerns the target T1, HDAC11 (Homo sapiens, UniProt Q96DB2).
T1 construct: His6 (N); SUMO (N); made in house; host or cells: E. coli BL21 (DE3)
T1 sequence (Q96DB2 1-347): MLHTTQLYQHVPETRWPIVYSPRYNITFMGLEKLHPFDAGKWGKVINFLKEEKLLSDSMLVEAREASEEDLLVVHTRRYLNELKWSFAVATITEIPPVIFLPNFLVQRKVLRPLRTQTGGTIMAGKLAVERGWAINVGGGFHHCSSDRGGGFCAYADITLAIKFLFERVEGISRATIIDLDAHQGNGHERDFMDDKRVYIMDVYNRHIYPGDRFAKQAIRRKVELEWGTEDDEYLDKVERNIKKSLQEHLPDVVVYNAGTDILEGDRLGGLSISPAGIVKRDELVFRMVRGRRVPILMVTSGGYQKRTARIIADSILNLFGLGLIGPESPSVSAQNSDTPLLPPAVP
As to the kind of experiment: HDAC11 fluorimetric enzyme activity assay (Boc-Lys(TFA)-AMC), dose-response. The data set is classed as biochemical.

A further data set addresses HDAC1 (Homo sapiens, UniProt Q13547). Kind of data set: Isoenzyme selectivity, HDAC1 dose-response. The note with it: means ± standard deviation (n = 3). The data set is classed as biochemical.
A further data set addresses HDAC4 (Homo sapiens, UniProt P56524). Kind of data set: Isoenzyme selectivity, HDAC4 dose-response. The data set is classed as biochemical. The note with it: means ± standard deviation (n = 3).
A further data set concerns the target T2, HDAC6 (Homo sapiens, UniProt Q9UBN7).
T2 sequence (Q9UBN7 1-1215): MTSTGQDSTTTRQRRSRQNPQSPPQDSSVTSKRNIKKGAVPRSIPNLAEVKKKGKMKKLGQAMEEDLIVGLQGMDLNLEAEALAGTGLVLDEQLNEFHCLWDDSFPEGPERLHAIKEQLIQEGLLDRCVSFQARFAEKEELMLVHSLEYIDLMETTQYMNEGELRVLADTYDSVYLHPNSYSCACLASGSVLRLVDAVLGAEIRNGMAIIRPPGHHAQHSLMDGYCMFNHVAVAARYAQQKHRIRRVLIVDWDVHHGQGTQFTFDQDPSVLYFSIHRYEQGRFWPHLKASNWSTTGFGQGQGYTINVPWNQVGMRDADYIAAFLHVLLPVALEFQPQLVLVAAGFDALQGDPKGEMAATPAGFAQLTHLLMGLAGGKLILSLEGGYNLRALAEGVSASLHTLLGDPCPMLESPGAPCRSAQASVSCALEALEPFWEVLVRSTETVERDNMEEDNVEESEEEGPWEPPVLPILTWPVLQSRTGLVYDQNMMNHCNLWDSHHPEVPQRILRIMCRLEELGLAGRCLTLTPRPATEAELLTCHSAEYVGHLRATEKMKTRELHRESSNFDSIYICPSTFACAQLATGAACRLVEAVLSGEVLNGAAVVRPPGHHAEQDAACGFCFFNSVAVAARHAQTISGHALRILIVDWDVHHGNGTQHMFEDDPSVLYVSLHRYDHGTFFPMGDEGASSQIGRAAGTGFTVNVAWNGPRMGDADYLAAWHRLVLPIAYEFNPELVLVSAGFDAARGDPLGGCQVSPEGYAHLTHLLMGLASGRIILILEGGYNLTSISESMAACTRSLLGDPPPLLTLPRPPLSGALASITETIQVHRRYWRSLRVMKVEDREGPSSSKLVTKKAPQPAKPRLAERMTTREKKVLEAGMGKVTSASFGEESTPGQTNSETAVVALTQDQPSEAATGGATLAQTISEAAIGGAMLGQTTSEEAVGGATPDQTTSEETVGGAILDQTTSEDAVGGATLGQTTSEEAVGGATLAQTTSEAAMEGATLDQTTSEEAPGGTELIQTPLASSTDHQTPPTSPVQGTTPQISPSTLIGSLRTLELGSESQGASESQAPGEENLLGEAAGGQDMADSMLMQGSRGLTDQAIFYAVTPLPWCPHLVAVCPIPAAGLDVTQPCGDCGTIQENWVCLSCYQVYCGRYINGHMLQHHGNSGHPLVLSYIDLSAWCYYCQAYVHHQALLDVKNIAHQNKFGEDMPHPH
Kind of data set: Isoenzyme selectivity, HDAC6 dose-response. The class given is biochemical. The note with it: means ± standard deviation (n = 3).

The target of a further data set is T3, HDAC8 (Homo sapiens, UniProt Q9BY41).
T3 sequence (Q9BY41 1-377): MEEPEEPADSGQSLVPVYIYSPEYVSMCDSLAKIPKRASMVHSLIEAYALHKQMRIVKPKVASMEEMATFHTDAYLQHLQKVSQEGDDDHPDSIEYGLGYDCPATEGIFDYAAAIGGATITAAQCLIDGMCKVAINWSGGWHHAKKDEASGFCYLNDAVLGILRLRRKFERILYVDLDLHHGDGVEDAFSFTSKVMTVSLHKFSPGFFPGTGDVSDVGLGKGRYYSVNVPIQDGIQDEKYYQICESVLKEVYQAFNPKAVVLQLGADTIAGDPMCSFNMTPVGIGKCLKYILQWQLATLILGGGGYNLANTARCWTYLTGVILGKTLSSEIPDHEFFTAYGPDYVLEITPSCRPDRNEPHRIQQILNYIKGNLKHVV
Kind of data set: Isoenzyme selectivity, HDAC8 dose-response. The class given is biochemical. The note with it: means ± standard deviation (n = 3).

Data set [2] can be described thus: Cytotoxicity testing (XTT) against HEK293. The class given is cell-based. The note with it: human, HEK293 cells, HEK293, 100 µM compound concentration, read-out: Cell viability. How it is done: (§1) Figure S10: Cytotoxicity testing of indicated compound against HEK293 cell. 5000 HEK293 cells were seeded in 96-Well plates. After 48h Inkubationszeit at 37°C and 5% CO2 in DMEM supplemented with 10% FBS and 1% Pen/Strep. A serial 1:2 dilution starting with 100 uM of compounds was added and incubated for a further 24h. XTT reagent was added and incubated for 4h. Afterwards the absorbance was measure at 450 nm and 600 nm. Data points are mean values ± standard error, n ≥ 6.
(§2) 9SPC045H03 in the enzyme activity assay is not due to compound-substrate interference. […]
For orientation: Tetrazolium assays rely on reduction of a dye to a coloured formazan, in cell work by metabolically active cells.

A further data set relates to HEK293 normal cells. Kind of data set: Cytotoxicity testing (XTT) against HEK293. The following applies: HEK293, up to 100 uM, 24h. The data set is classed as cell-based. As for the experimental part:
as §1, §2

Data set [3] concerns the target T1, HDAC11. As to the kind of experiment: Rapid dilution experiment (reversibility of binding). The data set is classed as biochemical. The following applies: 10× IC50, 100-fold rapid dilution, recovery of enzyme activity. How it is done: The inhibitors were evaluated for reversible inhibition in an enzyme activity assay. […] After equilibration for 1 h at 30 °C, this solution is diluted 100-fold directly into 80 μM of the substrate Boc-Lys(TFA)-AMC. After a further hour of incubation, the reaction was stopped as indicated in the enzyme activity assay section.

The target in data set [4] is T1, HDAC11. As to the kind of experiment: Time-dependent IC50 / pre-incubation one-step enzyme assay. The class given is biochemical. The following applies: pre-incubation for different times up to 60 min.
For data set [5], the target named is T1, HDAC11. Kind of data set: High-throughput screening, residual HDAC11 enzyme activity. The data set is classed as biochemical. The following applies: final compound concentration 10 µM.
In data set [6] the target is T1, HDAC11. The note with it: Figure 1 / text; read-out: HDAC11 IC50 of known inhibitors; cited from earlier work.
For data set [7], the target named is T1, HDAC11. Also noted: method as in PMID 31264832. The note with it: 50 µM; cited from earlier work.
The mark [8] stands for this setting: means ± standard deviation (n = 3), read-out: IC50 against HDAC11.

Chain of HDAC4 (P56524 whole entry, species assumed): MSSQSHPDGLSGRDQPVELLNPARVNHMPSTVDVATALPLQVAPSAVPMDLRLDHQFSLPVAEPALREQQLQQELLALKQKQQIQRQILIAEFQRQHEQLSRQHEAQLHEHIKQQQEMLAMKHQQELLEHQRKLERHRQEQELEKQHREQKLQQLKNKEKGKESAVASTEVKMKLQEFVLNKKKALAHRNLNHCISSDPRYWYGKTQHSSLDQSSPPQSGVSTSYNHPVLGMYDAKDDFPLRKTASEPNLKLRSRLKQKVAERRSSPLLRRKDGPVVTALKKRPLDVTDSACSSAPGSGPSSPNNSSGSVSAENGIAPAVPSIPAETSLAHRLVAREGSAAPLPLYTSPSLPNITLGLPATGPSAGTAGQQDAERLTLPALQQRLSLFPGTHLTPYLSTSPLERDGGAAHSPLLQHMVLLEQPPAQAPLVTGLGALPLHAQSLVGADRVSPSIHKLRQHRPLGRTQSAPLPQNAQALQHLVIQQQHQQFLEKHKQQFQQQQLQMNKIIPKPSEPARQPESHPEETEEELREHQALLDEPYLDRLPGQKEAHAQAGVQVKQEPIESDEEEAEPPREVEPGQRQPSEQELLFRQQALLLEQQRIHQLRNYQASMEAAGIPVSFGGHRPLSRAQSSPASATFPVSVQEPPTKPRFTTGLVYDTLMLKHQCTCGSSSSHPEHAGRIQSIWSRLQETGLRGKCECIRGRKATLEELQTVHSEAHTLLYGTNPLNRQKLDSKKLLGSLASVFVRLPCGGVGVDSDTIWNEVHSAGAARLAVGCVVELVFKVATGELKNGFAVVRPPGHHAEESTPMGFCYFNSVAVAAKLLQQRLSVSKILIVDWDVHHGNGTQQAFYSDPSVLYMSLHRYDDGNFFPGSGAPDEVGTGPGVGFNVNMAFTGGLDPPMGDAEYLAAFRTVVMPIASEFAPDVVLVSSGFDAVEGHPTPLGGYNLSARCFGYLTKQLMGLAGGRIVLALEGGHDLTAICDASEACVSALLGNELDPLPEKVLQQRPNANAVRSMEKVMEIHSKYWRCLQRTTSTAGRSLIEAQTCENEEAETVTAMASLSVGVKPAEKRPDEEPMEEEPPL
Chain of HDAC1 (Q13547 whole entry, species assumed): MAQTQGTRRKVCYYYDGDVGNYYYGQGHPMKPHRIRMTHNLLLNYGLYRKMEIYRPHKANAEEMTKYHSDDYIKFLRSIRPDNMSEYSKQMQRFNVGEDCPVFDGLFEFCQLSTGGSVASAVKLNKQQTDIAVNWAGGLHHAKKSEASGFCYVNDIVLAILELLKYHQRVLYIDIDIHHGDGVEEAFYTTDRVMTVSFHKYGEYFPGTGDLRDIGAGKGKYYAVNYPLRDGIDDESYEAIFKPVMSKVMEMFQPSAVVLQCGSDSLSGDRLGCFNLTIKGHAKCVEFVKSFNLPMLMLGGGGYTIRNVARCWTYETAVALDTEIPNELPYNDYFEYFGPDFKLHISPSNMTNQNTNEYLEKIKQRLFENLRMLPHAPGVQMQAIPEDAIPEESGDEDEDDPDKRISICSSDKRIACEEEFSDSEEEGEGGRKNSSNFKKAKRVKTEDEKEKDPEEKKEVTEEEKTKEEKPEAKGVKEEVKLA

One may read the IC50 as the concentration at which inhibition is half-maximal. A word on the viability: it is the share of living cells, or the viability signal relative to a control. Turning to `Oc1c(C(Nc2cccc(C(F)(F)F)c2)c2ccncc2)ccc2cccnc12` (centres unmarked) [9SPC045H03], the “Selectivity for HDAC11 against HDAC8” value on HDAC11 [1] (from IC50 values of Table 2) is on record as “about 3 fold”. In addition, on HDAC11 [1] (from IC50 values of Table 2), the “Selectivity for HDAC11 with respect to HDACs 1, 4, and 6” value was “more than 30 fold”. Besides, the IC50 was 2300 ± 500 nM on HDAC11 [1] (setting [8]); more than 70000 nM at HDAC1; more than 70000 nM at HDAC4; 67000 nM against HDAC6; 13000 ± 5000 nM at HDAC8. The viability at 24 h, 100 µM in [2] worked out at 50%. Also, the “Cytotoxic effect (in words)” value in the data set with HEK293 normal cells was “moderately toxic effect”. In addition, the “Reversibility of binding to HDAC11” value on HDAC11 [3] is on record as “reversible binding”. Besides, at HDAC11 [4], the “Time-dependence of HDAC11 inhibition” value is “no time-dependent inhibition”.
Consider `Cc1cccc(-n2c(SCc3ccc(C(=O)NO)cc3)nc3ccccc3c2=O)c1` [9HDA020B09], for which, at HDAC11 [1] (setting [8]), the IC50 was found to be 1600 ± 300 nM.
On the same count and under the same terms, the same measure for `O=C(CCc1ccccc1)c1c(O)cc(O)cc1O` [9SPC036F04]: more than 50000 nM; for `Cc1ccc(-n2c(SCc3ccc(C(=O)NO)cc3)nc3ccccc3c2=O)cc1` [9HDA020B05]: 2000 ± 200 nM.
For `Cc1cccc2nc(SCc3ccc(C(=O)NO)cc3)n(-c3ccccc3F)c(=O)c12` [9HDA020C07], the IC50 on HDAC11 [1] (setting [8]) was found to be 1500 ± 300 nM.
As for `O=C(C=Cc1ccc(N=Cc2ccc([N+](=O)[O-])cc2)cc1)OCCc1ccccc1` [9SPC056H05], the “Res. HDAC activity (residual HDAC11 activity)” value on HDAC11 [5] came to 97%.
Regarding `O=C(/C=C/c1ccc(O)c(O)c1)OCCc1ccccc1` [CAPE, caffeic acid phenethyl ester], the IC50 is 1500 nM on HDAC11 [1] (setting [8]); 22000 ± 5000 nM against HDAC1; 68000 ± 30000 nM against HDAC4; more than 70000 nM against HDAC6; 7000 ± 2000 nM against HDAC8. Besides, on HDAC11 [5], the “Res. HDAC activity (residual HDAC11 activity)” value was found to be 46%. For the same molecule, the “Cytotoxic effect (in words)” value in the data set with HEK293 normal cells is “did not show cytotoxic effects”. Further, the “Reversibility of binding to HDAC11” value on HDAC11 [3] was “reversible binding”. Moreover, at HDAC11 [4], the “Time-dependence of HDAC11 inhibition” value is “no time-dependent inhibition”.
As for `O=C(NO)c1ccc(CSc2nc3cc(Cl)ccc3c(=O)n2-c2ccccc2F)cc1` [9HDA020C04], at HDAC11 [1] (setting [8]), the 50% inhibitory concentration (IC50) was 2000 ± 500 nM.
The same measure, in the same setting: in the case of `O=C(NO)c1ccc(CSc2nc3ccccc3c(=O)n2-c2ccccc2F)cc1` [9HDA020B11] it was 4100 ± 500 nM.
For the molecule `CCCCCCCCCCCCCCCCNNC(=O)c1cccs1` [SIS17], the IC50 on HDAC11 [6] was 850 nM. On HDAC11 [7], the “Degree of myristoylation of the HDAC11 substrate SHMT2 in cells” value was “significantly increased”.
As for `N#C/C(=C\c1ccc(O)c(O)c1)C(=O)NCc1ccccc1` [9LOP015E07, Tyrphostin AG 490], the IC50 on HDAC11 [1] came to 14000 ± 3000 nM. Moreover, the “Res. HDAC activity (residual HDAC11 activity)” value at HDAC11 [5] is 65%.
Take `Cc1cccc2nc(SCc3ccc(C(=O)NO)cc3)n(-c3ccccc3)c(=O)c12` [9HDA020C06]: the results for the IC50 on HDAC11 [1] (setting [8]), at HDAC1 and against HDAC6 were 1100 ± 400 nM, 1400 ± 400 nM and 200 ± 100 nM, respectively. The “Res. HDAC activity (residual HDAC11 activity)” value on HDAC11 [5] came to 58%.
Regarding `O=C(NO)c1ccc(CSc2nc3ccccc3c(=O)n2-c2ccccc2)cc1` [9HDA020B04], at HDAC11 [1] (setting [8]), the IC50 is 2100 ± 200 nM.
Same read-out and setting: the same measure for `O=C(NO)c1ccc(CSc2nc3ccccc3c(=O)n2-c2ccc(Br)cc2)cc1` [9HDA020B07]: 2600 ± 400 nM.
Take `Cc1cccc2nc(SCc3ccc(C(=O)NO)cc3)n(-c3ccc(Cl)cc3)c(=O)c12` [9HDA020C09]: the IC50 on HDAC11 [1] (setting [8]) was 1900 ± 400 nM; at HDAC1, 2300 ± 500 nM; against HDAC4, 900 ± 400 nM; against HDAC6 it was 900 ± 300 nM; against HDAC8 it was 6000 ± 1000 nM.
With `Cc1ccc(-n2c(SCc3ccc(C(=O)NO)cc3)nc3ccccc3c2=O)c(C)c1` [9HDA020B08], the IC50 at HDAC11 [1] (setting [8]) was determined as 2000 ± 200 nM.
Take `O=C(NO)c1ccc(CSc2nc3ccccc3c(=O)n2-c2cccc(Cl)c2)cc1` [9HDA020B10]: the IC50 at HDAC11 [1] (setting [8]) stood at 2000 ± 300 nM.
Same read-out and setting: in the case of `Cc1ccccc1-n1c(SCc2ccc(C(=O)NO)cc2)nc2cccc(C)c2c1=O` [9HDA020C08] it was 3500 ± 800 nM.
As to `O=C1NC(=O)/C(=C/c2ccc(O)nc2)S1` [9HDA018E08], the IC50 at HDAC11 [1] (setting [8]) was determined as 19000 ± 2000 nM.
Same read-out and setting: in the case of `O=C(O)/C=C/c1ccc(O)c(O)c1` [9LOP003E09, caffeic acid] it was more than 100000 nM.
Regarding `N#C/C(=C\c1ccc(O)c(O)c1)C(=O)NCCCc1ccccc1` [9LOP015D09, Tyrphostin AG 555], the IC50 on HDAC11 [1] (setting [8]) was 4300 ± 3000 nM. Moreover, on HDAC11 [5], the “Res. HDAC activity (residual HDAC11 activity)” value is recorded as 49%.
For the molecule `CCc1ccc(-n2c(SCc3ccc(C(=O)NO)cc3)nc3cccc(C)c3c2=O)cc1` [9HDA020B06], the IC50 on HDAC11 [1] (setting [8]) came out at 1600 ± 200 nM.

The record behind these values is PMC12249833, “Discovery and Characterization of Novel Non-Hydroxamate HDAC11 Inhibitors” (International Journal of Molecular Sciences, 2025).
